Literature values as cited in patent publication US4221778A, “Prolonged release pharmaceutical preparations” (Pennwalt Corporation, priority 1979, dated 1980).
Counter-ions that a name gives are not always drawn.

Key:
[1] = not given; remark: listed apart in the source
[2] = not given; remark: listed apart in the source

In the case of CN[C@@H](C)[C@@H](O)c1ccccc1 [Pseudoephedrine], the “biological half life in man” value is given as 5-7 hours.
In the case of COc1ccc2c(c1)[C@]13CCCC[C@@H]1[C@H](C2)N(C)CC3 [Dextromethorphan], the “effectiveness in patients with pathological cough” value (pathological cough; compared with codeine) is listed as “about the equal of codeine”, the “analgesic or addictive properties” value (pathological cough; human, in vivo) is listed as “no analgesic or addictive properties” and the toxicity (pathological cough; human, in vivo) is listed as “quite low”. The drowsiness (pathological cough; unlike codeine) was “rarely produces drowsiness”.
For CC(C)(N)Cc1ccccc1 [Phentermine, phenyl-tertiary-butyl-amine], the “absorption from the gastrointestinal tract” value ([1]; free form) is given as “rapidly absorbed”.
For CC(N)C(O)c1ccccc1 (stereo not shown) [PPA, phenylpropanolamine], the “biological half life in man” value is given as 3.9 hours and the pKa [2] is given as 9.4.
In the case of CN[C@@H](C)[C@H](O)c1ccccc1 [Ephedrine], the “biological half life in man” value is given as “about 6 hours”.
In the case of CC(C)(N)Cc1ccccc1 [Phentermine hydrochloride], the “blood levels in humans” value ([1]; hydrochloride salt, doses of 15 mg. and 30 mg.) is listed as “rapid peak concentrations”.
